Tested on: MOLT-4
Test: Cytotoxicity against human MOLT4 cells
Format: functional, cell-based

Row | Compound | EC50
1 | CC(=O)OC[C@H]1O[C@@H](O[C@@H]2C[C@H]3C(C)(C)[C@H](OC(C)=O)CC[C@]3(C)[C@H]3CC[C@]45C[C@]4(CC[C@H]5[C@@H](C)C[C@@H](O)[C@H](O)C(C)(C)O)[C@@]32C)[C@H](O)[C@@H](O)[C@@H]1O [CUMINGIANOSIDE A] | < 6.25 nM
2 | COC(C)(C)[C@@H](O)[C@H](O)C[C@H](C)[C@@H]1CC[C@]23C[C@]12CC[C@@H]1[C@@]2(C)CC[C@@H](OC(C)=O)C(C)(C)[C@@H]2C[C@@H](O[C@@H]2O[C@H](COC(C)=O)[C@@H](O)[C@H](O)[C@H]2O)[C@]13C [CUMINGIANOSIDE C] | < 4.5 nM
